The values that follow come from patent publication US12540143B2, “Methods and compositions for targeted protein degradation” (Ranok Therapeutics (Hangzhou) Co. Ltd., priority 2019, dated 2026).

This experiment deals with MV4-11 cells. Description: MV4-11 Cytotoxicity Assay. Format: cell-based, human. The settings on record: Homo sapiens, MV4-11; 72 hr, CCK-8; read-out: MV4-11 cytotoxicity.
Regarding `Cc1sc2c(c1C)C(c1ccc(Cl)cc1)=N[C@@H](CC(=O)N1CCC(CN3CCN(c4ccc(-n5c(O)nnc5-c5cc(C(C)C)c(O)cc5O)cc4)CC3)CC1)c1nnc(C)n1-2` [Compound 41, (S)-2-(4-(4-chlorophenyl)-2,3,9-trimethyl-6H-thieno[3,2-f][1,2,4]triazolo[4,3-a][1,4]diazepin-6-yl)-1-(4-((4-(4-(3-(2,4-dihydroxy-5-isopropylphenyl)-5-hydroxy-4H-1,2,4-triazol-4-yl)phenyl)piperazin-1-yl)methyl)piperidin-1-yl)ethanone], the IC50 is less than 100 nM. For `Cc1sc2c(c1C)C(c1ccc(Cl)cc1)=N[C@@H](CC(=O)NCC1CCN(C(=O)C3CCN(Cc4ccc(-n5c(O)nnc5-c5cc(C(C)C)c(O)cc5O)cc4)CC3)C1)c1nnc(C)n1-2` (stereo partly drawn) [Compound 45, 2-((S)-4-(4-chlorophenyl)-2,3,9-trimethyl-6H-thieno[3,2-f][1,2,4]triazolo[4,3-a][1,4]diazepin-6-yl)-N-((1-(1-(4-(3-(2,4-dihydroxy-5-isopropylphenyl)-5-hydroxy-4H-1,2,4-triazol-4-yl)benzyl)piperidine-4-carbonyl)pyrrolidin-3-yl)methyl)acetamide, trifluoroacetic acid], the IC50 was less than 100 nM. In the case of `Cc1sc2c(c1C)C(c1ccc(Cl)cc1)=N[C@@H](CC(=O)N1CCC(CN3CCN(Cc4ccc(-n5c(O)nnc5-c5cc(C(C)C)c(O)cc5O)cc4F)CC3)CC1)c1nnc(C)n1-2` [Compound 17, (S)-2-(4-(4-chlorophenyl)-2,3,9-trimethyl-6H-thieno[3,2-f][1,2,4]triazolo[4,3-a][1,4]diazepin-6-yl)-1-(4-((4-(4-(3-(2,4-dihydroxy-5-isopropylphenyl)-5-hydroxy-4H-1,2,4-triazol-4-yl)-2-fluorobenzyl)piperazin-1-yl)methyl)piperidin-1-yl)ethan-1-one, trifluoroacetic acid] it was less than 100 nM. For `Cc1sc2c(c1C)C(c1ccc(Cl)cc1)=N[C@@H](CCN(C)CCOCCOc1ccc(-n3c(O)nnc3-c3cc(C(C)C)c(O)cc3O)cc1)c1nnc(C)n1-2` [Compound 71, (S)-4-(4-(4-(2-(2-((2-(4-(4-chlorophenyl)-2,3,9-trimethyl-6H-thieno[3,2-f][1,2,4]triazolo[4,3-a][1,4]diazepin-6-yl)ethyl)(methyl)amino)ethoxy)ethoxy)phenyl)-5-hydroxy-4H-1,2,4-triazol-3-yl)-6-isopropylbenzene-1,3-diol, trifluoroacetic acid], the IC50 fell in the range of 100 to 1000 nM. Take `CCc1cc(-c2nnc(O)n2-c2ccc(CN3CCC(C(=O)N4CCC(CNCC[C@@H]5N=C(c6ccc(Cl)cc6)c6c(sc(C)c6C)-n6c(C)nnc65)C4)CC3)cc2)c(O)cc1O` (stereo partly drawn) [Compound 67, (3-(((2-((6S)-4-(4-chlorophenyl)-2,3,9-trimethyl-6H-thieno[3,2-f][1,2,4]triazolo[4,3-a][1,4]diazepin-6-yl)ethyl)amino)methyl)pyrrolidin-1-yl)(1-(4-(3-(5-ethyl-2,4-dihydroxyphenyl)-5-hydroxy-4H-1,2,4-triazol-4-yl)benzyl)piperidin-4-yl) methanone, trifluoroacetic acid]: the IC50 is 100 to 1000 nM. On to `Cc1sc2c(c1C)C(c1ccc(Cl)cc1)=N[C@@H](CCNCC1CCN(C(=O)C3CCN(Cc4ccc(-n5c(O)nnc5-c5cc(C(C)C)c(O)cc5O)cc4)CC3)C1)c1nnc(C)n1-2` (stereo partly drawn) [Compound 66, (3-(((2-((6S)-4-(4-chlorophenyl)-2,3,9-trimethyl-6H-thieno[3,2-f][1,2,4]triazolo[4,3-a][1,4]diazepin-6-yl)ethyl)amino)methyl)pyrrolidin-1-yl)(1-(4-(3-(2,4-dihydroxy-5-isopropylphenyl)-5-hydroxy-4H-1,2,4-triazol-4-yl)benzyl)piperidin-4-yl) methanone, trifluoroacetic acid], for which the IC50 is 100 to 1000 nM.

As to `Cc1sc2c(c1C)C(c1ccc(Cl)cc1)=N[C@@H](CC(=O)N1CCN(Cc3ccc(-n4c(O)nnc4-c4cc(C(C)C)c(O)cc4O)cc3)CC1)c1nnc(C)n1-2` [Compound 38, 2-((6S)-4-(4-chlorophenyl)-2,3,9-trimethyl-6H-thieno[3,2-f][1,2,4]triazolo[4,3-a][1,4]diazepin-6-yl)-1-(4-(4-(3-(2,4-dihydroxy-5-isopropylphenyl)-5-hydroxy-4H-1,2,4-triazol-4-yl)benzyl)piperazin-1-yl)ethanone, trifluoroacetic acid], the IC50 was less than 100 nM. In the case of `Cc1sc2c(c1C)C(c1ccc(Cl)cc1)=N[C@@H](CC(=O)N(C)CCOc1ccc(CN(C)Cc3ccc(-n4c(O)nnc4-c4cc(C(C)C)c(O)cc4O)cc3)cc1)c1nnc(C)n1-2` [Compound 99, (S)-2-(4-(4-chlorophenyl)-2,3,9-trimethyl-6H-thieno[3,2-f][1,2,4]triazolo[4,3-a][1,4]diazepin-6-yl)-N-(2-(4-(((4-(3-(2,4-dihydroxy-5-isopropylphenyl)-5-hydroxy-4H-1,2,4-triazol-4-yl)benzyl)(methyl)amino)methyl)phenoxy)ethyl)-N-methylacetamide, formic acid], the IC50 is less than 100 nM. In the case of `Cc1sc2c(c1C)C(c1ccc(Cl)cc1)=N[C@@H](CC(=O)Nc1ccc(NC(=O)C3CCN(Cc4ccc(-n5c(O)nnc5-c5cc(C(C)C)c(O)cc5O)cc4)CC3)cc1)c1nnc(C)n1-2` [Compound 72, N-(4-(2-((6S)-4-(4-chlorophenyl)-2,3,9-trimethyl-6H-thieno[3,2-f][1,2,4]triazolo[4,3-a][1,4]diazepin-6-yl)acetamido)phenyl)-1-(4-(3-(2,4-dihydroxy-5-isopropylphenyl)-5-hydroxy-4H-1,2,4-triazol-4-yl)benzyl)piperidine-4-carboxamide, trifluoroacetic acid] it was less than 100 nM; in that of `Cc1sc2c(c1C)C(c1ccc(Cl)cc1)=N[C@@H](CC(=O)N1CCC(CN3CCC(Cc4ccc(-n5c(O)nnc5-c5cc(C(C)C)c(O)cc5O)cc4)CC3)CC1)c1nnc(C)n1-2` [Compound 94, (S)-2-(4-(4-chlorophenyl)-2,3,9-trimethyl-6H-thieno[3,2-f][1,2,4]triazolo[4,3-a][1,4]diazepin-6-yl)-1-(4-((4-(4-(3-(2,4-dihydroxy-5-isopropylphenyl)-5-hydroxy-4H-1,2,4-triazol-4-yl)benzyl)piperidin-1-yl)methyl)piperidin-1-yl)ethan-1-one, trifluoroacetic acid], less than 100 nM. Under `CCc1cc(-c2nnc(C(=O)NCC(F)(F)F)n2-c2ccc(CC3CCN(Cc4ccc(CNC(=O)C[C@@H]5N=C(c6ccc(Cl)cc6)c6c(sc(C)c6C)-n6c(C)nnc65)cc4)CC3)cc2)c(O)cc1O` [Compound 91, (S)-4-(4-((1-(4-((2-(4-(4-chlorophenyl)-2,3,9-trimethyl-6H-thieno[3,2-f][1,2,4]triazolo[4,3-a][1,4]diazepin-6-yl)acetamido)methyl)benzyl)piperidin-4-yl)methyl)phenyl)-5-(5-ethyl-2,4-dihydroxyphenyl)-N-(2,2,2-trifluoroethyl)-4H-1,2,4-triazole-3-carboxamide, trifluoroacetic acid] stands less than 100 nM; under `Cc1sc2c(c1C)C(c1ccc(Cl)cc1)=N[C@@H](CC(=O)N1CCN(C(=O)C3CCN(c4ccc(-n5c(O)nnc5-c5cc(C(C)C)c(O)cc5O)cc4)CC3)CC1)c1nnc(C)n1-2` [Compound 29, (S)-2-(4-(4-chlorophenyl)-2,3,9-trimethyl-6H-thieno[3,2-f][1,2,4]triazolo[4,3-a][1,4]diazepin-6-yl)-1-(4-(1-(4-(3-(2,4-dihydroxy-5-isopropylphenyl)-5-hydroxy-4H-1,2,4-triazol-4-yl)phenyl)piperidine-4-carbonyl)piperazin-1-yl)ethan-1-one], 100 to 1000 nM; under `Cc1sc2c(c1C)C(c1ccc(Cl)cc1)=N[C@@H](CC(=O)N1CCC(Cc3ccc(CN(C)Cc4ccc(-n5c(O)nnc5-c5cc(C(C)C)c(O)cc5O)cc4)cc3)CC1)c1nnc(C)n1-2` [Compound 83, (S)-2-(4-(4-chlorophenyl)-2,3,9-trimethyl-6H-thieno[3,2-f][1,2,4]triazolo[4,3-a][1,4]diazepin-6-yl)-1-(4-(4-(((4-(3-(2,4-dihydroxy-5-isopropylphenyl)-5-hydroxy-4H-1,2,4-triazol-4-yl)benzyl)(methyl)amino)methyl)benzyl)piperidin-1-yl)ethan-1-one, trifluoroacetic acid], less than 100 nM. For `Cc1sc2c(c1C)C(c1ccc(Cl)cc1)=N[C@@H](CC(=O)N1CCC(CN3CCN(Cc4ccc(-n5c(S)nnc5-c5cc(C(C)C)c(O)cc5O)cc4)CC3)CC1)c1nnc(C)n1-2` [Compound 12, 2-((6S)-4-(4-chlorophenyl)-2,3,9-trimethyl-6H-thieno[3,2-f][1,2,4]triazolo[4,3-a][1,4]diazepin-6-yl)-1-(4-((4-(4-(3-(2,4-dihydroxy-5-isopropylphenyl)-5-mercapto-4H-1,2,4-triazol-4-yl)benzyl)piperazin-1-yl)methyl)piperidin-1-yl)ethanone, trifluoroacetic acid], the IC50 is less than 100 nM. Consider `Cc1sc2c(c1C)C(c1ccc(Cl)cc1)=N[C@@H](CC(=O)N1CCC(CN3CCN(Cc4ccc(-n5c(C(N)=O)nnc5-c5ccc(O)cc5O)cc4)CC3)CC1)c1nnc(C)n1-2` [Compound 112, (S)-4-(4-((4-((1-(2-(4-(4-chlorophenyl)-2,3,9-trimethyl-6H-thieno[3,2-f][1,2,4]triazolo[4,3-a][1,4]diazepin-6-yl)acetyl)piperidin-4-yl)methyl)piperazin-1-yl)methyl)phenyl)-5-(2,4-dihydroxyphenyl)-4H-1,2,4-triazole-3-carboxamide, trifluoroacetic acid], for which the IC50 was less than 100 nM. In the case of `CCc1cc(-c2nnc(C(=O)NCCN(CC)CC)n2-c2ccc(CN3CCN(CC4CCN(C(=O)C[C@@H]5N=C(c6ccc(Cl)cc6)c6c(sc(C)c6C)-n6c(C)nnc65)CC4)CC3)cc2)c(O)cc1O` [Compound 104, (S)-4-(4-((4-((1-(2-(4-(4-chlorophenyl)-2,3,9-trimethyl-6H-thieno[3,2-f][1,2,4]triazolo[4,3-a][1,4]diazepin-6-yl)acetyl)piperidin-4-yl)methyl)piperazin-1-yl)methyl)phenyl)-N-(2-(diethylamino)ethyl)-5-(5-ethyl-2,4-dihydroxyphenyl)-4H-1,2,4-triazole-3-carboxamide, trifluoroacetic acid] it was less than 100 nM.
